Where “and” joins values, the source holds several entries; their conditions need not be identical. Identical values can stand only once.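 These data come from cells grown in 96-well plates and exposed to compound for 48 hours at five concentrations. At the GI50, growth is halved. TGI: total growth inhibition.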
Tests used:
Assay in all cases: DTP human tumour cell line panel, 48 h
[1] = test system: COLO 205 colon
[2] = test system: DU-145 prostate
[3] = test system: HOP-62 NSCLC
[4] = test system: MCF7 breast
[5] = test system: OVCAR-5 ovarian
[6] = test system: SF-539 CNS
[7] = test system: SK-MEL-28 melanoma
[8] = test system: UACC-257 melanoma

Row | SMILES | GI50 [1] | TGI [1] | GI50 [2] | TGI [2] | GI50 [3] | TGI [3] | GI50 [4] | TGI [4] | GI50 [5] | TGI [5] | GI50 [6] | TGI [6] | GI50 [7] | TGI [7] | GI50 [8] | TGI [8]
1 | O=C(CSc1nc2ccccc2nc1-c1ccccc1)Nc1ccc(Cl)cc1 | > 100 µM | > 100 µM | 55.4 µM | > 100 µM | 5.28 µM | 20.4 µM | 44.3 µM | > 100 µM | > 100 µM | > 100 µM | 16.3 µM | 36.6 µM | 60.8 µM | > 100 µM | > 100 µM | > 100 µM
2 | NCCCCCCCCn1c2c(c3ccccc3c1=O)C(=O)c1ccccc1-2 | – | – | 3.4 µM | 14 µM | 2.13 µM | 4.69 µM | 7.45 µM | 46.2 µM | 2.67 µM | 7.89 µM | 2.84 µM | 8.62 µM | 2.87 µM | 8.47 µM | 4.97 µM | 20.6 µM
3 | COc1cc(-c2nc(NC(C)=O)sc2-c2ccnc(NCCNS(=O)(=O)c3ccccc3)n2)ccc1Cl | 2.21 µM | 6.01 µM | 5.11 µM | > 100 µM | 6.78 µM | > 100 µM | 2.4 µM | > 100 µM | 9.77 µM | > 100 µM | 2.86 µM | 8.48 µM | 3.71 µM | > 100 µM | 5.37 µM | > 100 µM
4 | CCN(CC)c1ccc(C2CC(c3cc(OC)c(OC)c(OC)c3)=NN2)cc1 (stereo not drawn) | – | – | 0.305 µM | 1.49 µM | 0.456 µM | > 21.1 µM | 0.227 µM | – | 5.12 µM | > 100 µM | 0.29 µM | 2.18 µM | 23.7 µM | > 100 µM | 20.2 µM | > 100 µM
5 | CCc1c2c(nc3cc4c(c(N)c13)OCO4)-c1cc3c(c(=O)n1C2)COC(=O)[C@]3(O)CC | 0.696 µM | – | < 0.001 µM | > 100 µM | < 0.001 µM | – | < 0.001 µM | 0.0298 µM | 0.702 µM and 0.0948 µM | 0.409 µM | < 0.001 µM | 0.038 µM | 0.473 µM and 0.249 µM | 5.44 µM and 32.4 µM | 0.199 µM and 0.0583 µM | 2.58 µM and 2.47 µM
6 | CNC(=O)c1c(NC(=O)c2ccc(C(F)(F)F)cc2)sc2c1CCC(=O)C2 | 0.603 µM | 3.1 µM | 4.18 µM | > 100 µM | 2.42 µM | 10.9 µM | 0.837 µM | 4.13 µM | 0.607 µM | 2.76 µM | 0.386 µM | 1.72 µM | 0.864 µM | 3.67 µM | 1.73 µM | 6.22 µM
7 | Cc1cccc(-c2nn3c(c2-c2ccnc4ccc(C(N)=O)cc24)CCC3)n1 | > 100 µM | > 100 µM | > 100 µM | > 100 µM | > 100 µM | > 100 µM | > 100 µM | > 100 µM | > 100 µM | > 100 µM | > 100 µM | > 100 µM | > 100 µM | > 100 µM | > 100 µM | > 100 µM
8 | COC(=O)NC1(NC(=O)OC)NC(=O)c2cc(OC)c(OC)cc2N1 | – | > 100 µM | – | > 100 µM | – | > 100 µM | – | > 100 µM | – | > 100 µM | – | 60.8 µM | – | > 100 µM | – | > 100 µM
